The results in this text go back to ChEMBL document CHEMBL2074511, “Molecular cloning and pharmacological characterization of rat multidrug resistance protein 1 (mrp1)” (Drug Metab Dispos, 2003).

The test system of this data set is Multidrug resistance-associated protein 1. In words: TP_TRANSPORTER: drug resistance in MRP1-expressing HEK293 cells. To be noted: human. Format: functional, cell-based.

Consider `COc1cccc2c1C(=O)c1c(O)c3c(c(O)c1C2=O)C[C@@](O)(C(=O)CO)C[C@@H]3O[C@H]1C[C@H](N)[C@H](O)[C@H](C)O1` [DOXORUBICIN], for which the Activity entry was “substrate []”.
As for `COc1cccc2c1C(=O)c1c(O)c3c(c(O)c1C2=O)C[C@@](O)(C(=O)CO)C[C@@H]3O[C@H]1C[C@H](N)[C@@H](O)[C@H](C)O1` [EPIRUBICIN], the entry is “substrate []”; as for `COc1cc([C@@H]2c3cc4c(cc3[C@@H](O[C@@H]3O[C@@H]5CO[C@@H](C)O[C@H]5[C@H](O)[C@H]3O)[C@H]3COC(=O)[C@H]23)OCO4)cc(OC)c1O` [ETOPOSIDE], “substrate []”; as for `CC[C@]1(O)C[C@H]2CN(CCc3c([nH]c4ccccc34)[C@@](C(=O)OC)(c3cc4c(cc3OC)N(C=O)[C@H]3[C@@](O)(C(=O)OC)[C@H](OC(C)=O)[C@]5(CC)C=CCN6CC[C@]43[C@@H]65)C2)C1` [VINCRISTINE], “substrate []”.
